Test results: patent publication US10478451B2, “Use of dextran sulfate” (TX Medic AB, priority 2015, dated 2019)
Entries after “also recorded” stand apart in the source; their conditions may differ.

How the values were obtained:
[1] = orally delivered; mice, rats, hamsters and guinea pigs; cited from earlier work
[2] = test system: myocardial infarction induced interstitial fibrosis; assay: Anti-fibrosis effect in a rat model of myocardial infarction (interstitial fibrosis, Masson's Trichrome staining); format: in vivo
Excerpt: The present study assessed the effect of dextran sulfate in inhibiting or reducing fibrosis in a rat model of myocardial infarction (MI).
The myocardial infarction model in rat involved ligations of the left coronary artery permanently with an intramural stitch. The surgery caused obstruction of the blood flow and subsequently to severe ischemic damage and cardiac walls infarct.
In total 120 female SD rats having an average body weight of 178 g at study initiation (Day 0) were obtained from Harlan Laboratories, Israel. Animals were fed ad libitum a commercial rodent diet (Teklad Certified Global 18% Protein Diet). Animals had free access to autoclaved and acidified drinking water (pH between 2.5 and 3.5) obtained from the municipality supply. Animals were housed under standard laboratory conditions, air conditioned and filtered (HEPA F6/6) with adequate fresh air supply (minimum air changes/hour). Animals were kept in a climate controlled environment with a temperatures range of 20-24° C. and RH range of 30-70% with 12 hours light and 12 hours dark cycle.
Dextran sulfate with an average molecular weight within a range of 5-7 kDa was dissolved in 0.9% NaCl (saline) (Teva Pharmaceutical Industries Ltd) to be injected subcutaneous at doses of 15 mg/kg or 3 mg/kg. […]
Masson's Trichrome Staining was used for fibrosis evaluation. […] The sections were visualized in a computer-imaging system and infarct size was marked and calculated using the ImageJ program. For each animal, five serial sections including one containing the ligature were analyzed and the mean value of all sections for each heart was treated as one value for statistical analysis. […]
Interstitial fibrosis in the marginal area of the infarct was estimated manually in heart sections stained with Masson's Trichrome Staining. The area of interstitial fibrosis was calculated as the percent of the total area of the left ventricle. For each rat five cross-sections were analyzed.

Substance: Dextran sulfate
- induction of colitis and intestinal fibrosis [1]: known to induce colitis and intestinal fibrosis
- interstitial fibrosis compared to vehicle control group 1M (in words) ([2]; group 2M: 15 mg/kg s.c., 3 times a week for 3 weeks, P<0.01, five weeks post-infarction): significant suppression of myocardial infarction induced interstitial fibrosis; also recorded: significantly decreased fibrosis
- extent of interstitial fibrosis (area of interstitial fibrosis as percent of the total area of the left ventricle) ([2]; group 2M: 15 mg/kg s.c., 3 times a week for 3 weeks, female SD rats, margin zone of infarct, day 36 after MI, vehicle group 1M 22.7±1.9%): 11.9±0.9%
- extent of interstitial fibrosis compared to vehicle control group 1M (in words) ([2]; groups 3M-5M: 15 mg/kg s.c. 3 times a week for 1 week, 15 mg/kg single dose, 3 mg/kg 3 times a week for 1 week, day 36 after MI): also lower in the other dextran sulfate treated groups 3M-5M, although the difference was not significant
